The structures appear in SMILES notation. “Also recorded” adds a separate entry of the source.

In test [1] the test system is FRβ expression on human AML cell lines. Briefly: ATRA treatment of AML cell lines, FRβ surface expression by flow cytometry. The test is classed as cell-based. Particulars: 10 nM ATRA. The procedure:
AML cell lines were plated on d0 at 2.5×10^5 per mL in complete media with final concentration 10 nM ATRA. On d3 fresh media with 10 nM ATRA was added to keep cells at 2.5×10^5 per mL. On d5 viable AML cells were washed and counted with trypan blue exclusion. Cells were then stained for FRβ surface expression and analyzed by flow cytometry, processed for RNA extraction, or used in co-cultures for functional assays.
Tumor cell surface expression of FRβ was detected by m909-IgG antibody (Dimiter Dimitrov) conjugated to biotin (EZ-Link Biotinylation Kit, Thermo). To block Fc receptor binding, tumor cells were incubated with 50 ug/mL unlabeled human IgG (Jackson ImmunoResearch) for 10 min. 3-5 ug/mL m909-biotin or human IgG-biotin isotype control was added, and cells were labeled for 30 min at 4 degrees, washed with FACS buffer, and labeled with Streptavidin-APC (BD) for 25 min at 4 degrees. Cells were washed, resuspended with 7AAD, and analyzed by flow cytometry.
(In general: In flow cytometry, cells or beads pass a laser one at a time.)

Test [2] has as its system ATRA-treated THP1. In words: CAR T cell recognition of ATRA-treated AML cell lines (cytokine release). Type of test: cell-based, human. Particulars: 10 nM ATRA. The procedure: These assays were performed by co-culture of 10^5 CAR+ T cells with 10^5 target cells per well (or media alone) in triplicate in 96-well plates in a 200 μL volume of complete media. After ˜24 hours, plates were centrifuged at 1200 RPM to pellet the cells, and co-culture supernatants were removed and assayed for the presence of IFN-γ by ELISA (Biolegend). Values represent the mean of triplicate wells. IL-2, IL-4, IL-10, IFN-γ, and TNF-α cytokines were measured by flow cytometry with Cytometric Bead Array (BD Biosciences). The cell pellets were then labeled with antibodies for CD3 and CD69, and assessed by flow cytometry. Live, CD3+ gates were used for analysis of CD69 upregulation. For m909 CAR T cells, GFP was used as a marker for CAR+ cells. In some cases cell pellets were labeled for FRβ surface expression following co-cultures.
AML cell lines were plated on d0 at 2.5×10^5 per mL in complete media with final concentration 10 nM ATRA. […] On d5 viable AML cells were washed and counted with trypan blue exclusion. Cells were then stained for FRβ surface expression and analyzed by flow cytometry, processed for RNA extraction, or used in co-cultures for functional assays.
Cell lines and CAR+ T cells were prepared as above (for cytokine release assays). […] Culture supernatants were then collected and analyzed for cytokines as described.

Consider `CC1=C(/C=C/C(C)=C/C=C/C(C)=C/C(=O)O)C(C)(C)CCC1` [ATRA, all-trans retinoic acid], for which, in test [1], the “FRβ expression on AML cells” value was “enhanced the intensity of FRβ expression on the AMLs; also recorded: increases FRβ expression; also recorded: enhanced surface expression of FRβ; also recorded: induced FRβ upregulation”. Further, in test [2], the “IFNγ secretion by CAR T cells towards ATRA-treated AML cells” value is “enhances; also recorded: IFNγ production” and the “immune recognition of ATRA-treated AML cells by FRβ CAR T cells” value is recorded as “increased immune recognition by FRβ CAR T cells; also recorded: increased immune recognition by m909 CAR T cells; also recorded: enhances FRβ-mediated m909 CAR T cell recognition; also recorded: increases immune recognition”.

The record behind these values is patent publication US9446105B2, “Chimeric antigen receptor specific for folate receptor β” (THE TRUSTEES OF THE UNIVERSITY OF PENNSYLVANIA, priority 2013, dated 2016).
